In ChEMBL document CHEMBL1133800, “Microwave assisted synthesis of N-arylphthalamic acids with hyperlipidemic activity” (2001):

How the values were obtained:
Assay type in all cases: functional
Mus musculus [1] = species on record: Mus musculus; assay: Plasma cholesterol level was evaluated in Swiss white mice before treatment with the compound
Mus musculus [2] = species on record: Mus musculus; assay: Plasma triglyceride level was evaluated in Swiss white mice before treatment with the compound
Mus musculus [3] = assay: Plasma cholesterol level was evaluated in Swiss white mice treated with 20 mg/kg/day of ip administration for 14 days; details: route intraperitoneal
Mus musculus [4] = species on record: Mus musculus; assay: Animal body weight was evaluated in Swiss white mice before treatment with the compound
Mus musculus [5] = assay: Plasma triglyceride level was evaluated in Swiss white mice treated with 20 mg/kg/day of ip administration for 14 days; details: route intraperitoneal
Mus musculus [6] = assay: Animal body weight was evaluated in Swiss white mice treated with 20 mg/kg/day of ip administration for 14 days; details: route intraperitoneal

Row | SMILES | Cholesterol (Mus musculus [1]) | Triglycerides (Mus musculus [2]) | Cholesterol (Mus musculus [3]) | Body weight (Mus musculus [4]) | Triglycerides (Mus musculus [5]) | Body weight (Mus musculus [6])
1 | O=C(O)c1ccccc1C(=O)Nc1ccc(F)cc1 | 2.66 mM | 1.26 mM | < 3.17 mM | 20 g | < 1.48 mM | <25 g
2 | O=C(O)c1ccccc1C(=O)Nc1cccc(F)c1 | 3.02 mM | 1.01 mM | < 3.28 mM | 26 g | < 1.35 mM | <29 g
3 | O=C(O)c1ccccc1C(=O)Nc1ccccc1F | 3.06 mM | 0.94 mM | < 3.4 mM | 26 g | < 1.23 mM | <30 g
4 | O=C(O)c1ccccc1C(=O)Nc1ccc(Cl)cc1 | 2.3 mM | 0.86 mM | < 2.51 mM | 25 g | < 1.06 mM | 28 g
5 | O=C(O)c1ccccc1C(=O)Nc1ccccc1 | 2.71 mM | 1.07 mM | < 3.06 mM | 28 g | < 1.3 mM | 29 g
6 | O=C(O)c1ccccc1C(=O)Nc1nc[nH]n1 | 2.45 mM | 1.14 mM | 2.78 mM | 35 g | < 1.58 mM | 38 g
7 | O=C(O)c1ccccc1C(=O)Nc1ccccc1Cl | 2.11 mM | 1.06 mM | < 2.43 mM | 26 g | < 1.32 mM | <29 g
8 | O=C(O)c1ccccc1C(=O)Nc1cccc(Cl)c1 | 2.17 mM | 1.04 mM | < 2.48 mM | 24 g | < 1.28 mM | <28 g
9 | O=C(O)c1ccccc1C(=O)Nn1cnnc1 | 2.46 mM | 1.12 mM | 2.95 mM | 35 g | < 1.49 mM | 39 g
